{"source": "paper PMC5471204", "about": "“Autotransporter domain-dependent enzymatic analysis of a novel extremely thermostable carboxylesterase with high biodegradability towards pyrethroid pesticides” (Scientific Reports, 2017)", "key": {"EstPS1 [1]": {"system": "T1, EstPS1", "T1 construct": "full-length ORF with signal peptide (24 residues) and autotransporter domain (357-640); N-terminal His-tag, pET-28a, E. coli BL21(DE3), Ni-NTA; 640 residues, 68 kDa", "assay": "pesticide hydrolysis, gas chromatography, Lineweaver-Burk", "type": "biochemical, Pseudomonas synxantha", "conditions": "50 mM Tris-HCl pH 8.0, 40 °C (degradation assay); stated substrate range 10 to 500 μM", "text": "pesticide hydrolysis, gas chromatography, Lineweaver-Burk on EstPS1"}, "EstPS1 [2]": {"system": "T1, EstPS1", "assay": "p-nitrophenol release at […] nm, Lineweaver-Burk", "type": "biochemical, Pseudomonas synxantha", "conditions": "50 mM Tris-HCl pH 8.0, 60 °C"}}, "data": [{"smiles": "CC1(C)C(C=C(Cl)Cl)C1C(=O)OC(C#N)c1cccc(Oc2ccccc2)c1", "note": "(stereo not drawn) [trans-Cypermethrin]", "values": [{"measurement": "Km", "setting": "EstPS1 [1]", "value": "0.53 ± 0.028", "unit": "µM"}]}, {"smiles": "CCCCCCCC(=O)Oc1ccc([N+](=O)[O-])cc1", "note": "[p-Nitrophenyl caprylate]", "values": [{"measurement": "Km", "setting": "EstPS1 [2]", "value": "61 ± 10", "unit": "µM"}]}, {"smiles": "CCCCCCCCCC(=O)Oc1ccc([N+](=O)[O-])cc1", "note": "[p-Nitrophenyl decanoate]", "values": [{"measurement": "Km", "setting": "EstPS1 [2]", "value": "362 ± 13", "unit": "µM"}]}, {"smiles": "CC1(C)C(C=C(Cl)Cl)C1C(=O)OC(C#N)c1cccc(Oc2ccccc2)c1", "note": "(stereo not drawn) [cis-Cypermethrin]", "values": [{"measurement": "Km", "setting": "EstPS1 [1]", "value": "0.62 ± 0.031", "unit": "µM"}]}, {"smiles": "CC(=O)Oc1ccc([N+](=O)[O-])cc1", "note": "[p-Nitrophenyl acetate]", "values": [{"measurement": "Km", "setting": "EstPS1 [2]", "value": "102 ± 12", "unit": "µM"}]}, {"smiles": "CC(C)C(C(=O)OC(C#N)c1cccc(Oc2ccccc2)c1)c1ccc(Cl)cc1", "note": "(stereo not drawn) [Fenvalerate]", "values": [{"measurement": "Km", "setting": "EstPS1 [1]", "value": "0.84 ± 0.042", "unit": "µM"}]}, {"smiles": "Cc1c(COC(=O)[C@@H]2[C@H](/C=C(\\Cl)C(F)(F)F)C2(C)C)cccc1-c1ccccc1", "note": "(racemic) [Bifenthrin]", "values": [{"measurement": "Km", "setting": "EstPS1 [1]", "value": "1.25 ± 0.061", "unit": "µM"}]}, {"smiles": "CCCC(=O)Oc1ccc([N+](=O)[O-])cc1", "note": "[p-Nitrophenyl butyrate]", "values": [{"measurement": "Km", "setting": "EstPS1 [2]", "value": "43 ± 8", "unit": "µM"}]}, {"smiles": "CCCCCCCCCCCC(=O)Oc1ccc([N+](=O)[O-])cc1", "note": "[p-Nitrophenyl laurate]", "values": [{"measurement": "Km", "setting": "EstPS1 [2]", "value": "391 ± 9", "unit": "µM"}]}, {"smiles": "CNC(=O)Oc1cccc2ccccc12", "note": "[Carbaryl]", "values": [{"measurement": "Km", "setting": "EstPS1 [1]", "value": "0.21 ± 0.01", "unit": "µM"}]}, {"smiles": "CCCCCC(=O)Oc1ccc([N+](=O)[O-])cc1", "note": "[p-Nitrophenyl caproate]", "values": [{"measurement": "Km", "setting": "EstPS1 [2]", "value": "76 ± 7", "unit": "µM"}]}, {"smiles": "CC1(C)C(C(=O)OC(C#N)c2cccc(Oc3ccccc3)c2)C1(C)C", "note": "(stereo not drawn) [Fenpropathrin]", "values": [{"measurement": "Km", "setting": "EstPS1 [1]", "value": "0.25 ± 0.014", "unit": "µM"}]}]}
